Consider six molecules from publication PMC4521081, “Thiophenecarboxamide Derivatives Activated by EthA Kill Mycobacterium tuberculosis by Inhibiting the CTP Synthetase PyrG” (Chemistry & Biology, 2015).

Experiment [1] has as its system M. tuberculosis 88.10 (pyrG V186G). The class given is cell-based, Mycobacterium tuberculosis.
Experiment [2] concerns M. tuberculosis ethA mutant 81.10 (Δ1109–1137). The class given is cell-based, Mycobacterium tuberculosis.
In experiment [3] the test system is M. tuberculosis 82.22 (ethA ΔT-94, pyrG V186G). The class given is cell-based, Mycobacterium tuberculosis.
For experiment [4], the system named is M. tuberculosis 82.19 (ethA L129P, pyrG V186G). The class given is cell-based, Mycobacterium tuberculosis.
For experiment [5], the system named is M. tuberculosis pyrG mutant 88.7 (V186G). It counts as cell-based, Mycobacterium tuberculosis.
Experiment [6] has as its system M. tuberculosis 82.14 (ethA W45R, pyrG V186G). It counts as cell-based, Mycobacterium tuberculosis.
The target in the next experiment is PyrG V186G mutant (Mycobacterium tuberculosis, UniProt P9WHK7, V186G). It counts as biochemical, M. tuberculosis.

Values after ≈ are worked out from the molar mass of the structure shown.

The MIC is the lowest concentration found to suppress growth. Lower therefore signals a more susceptible organism. For the molecule `CCc1cc(C(N)=S)ccn1` [ETH, ethionamide, reference compound], the minimal inhibitory concentration (MIC) in experiment [1] was found to be 0.5 µg/mL (≈ 3.01 µM); in experiment [2], 10 µg/mL (≈ 60.2 µM); in experiment [3] it was 10 µg/mL (≈ 60.2 µM); in experiment [4], 10 µg/mL (≈ 60.2 µM); in experiment [5] it was 0.5 µg/mL (≈ 3.01 µM); in experiment [6], 10 µg/mL (≈ 60.2 µM).
As for `O=C(CCc1ccccc1)NC(=S)Nc1ccc(N2CCCCC2)cc1` [compound 7904688, 3-phenyl-N-[(4-piperidin-1-ylphenyl)carbamothioyl]propanamide], the MIC was 10 µg/mL (≈ 27.2 µM) in experiment [1]; more than 40 µg/mL in experiment [2]; more than 40 µg/mL in experiment [3]; more than 40 µg/mL in experiment [4]; 10 µg/mL (≈ 27.2 µM) in experiment [5]; more than 40 µg/mL in experiment [6].
Turning to `Cc1ccc(C(=O)Nc2ccc([N+](=O)[O-])cc2)s1` [compound 7947882, 5-methyl-N-(4-nitrophenyl)thiophene-2-carboxamide], the minimal inhibitory concentration (MIC) in experiment [1] is 5 to 10 µg/mL; in experiment [3], more than 40 µg/mL; in experiment [4], more than 40 µg/mL; in experiment [6] it was more than 40 µg/mL.
For the molecule `Cc1ccc(C(=O)O)s1` [compound 11326028, 5-methylthiophene-2-carboxylic acid], the “resistance of 81.10 mutant (mutated in ethA gene)” value in experiment [2] is listed as “resistant”. Besides, the MIC in experiment [5] was more than 8 µg/mL.
`COc1ccc(NC(=O)c2cc([N+](=O)[O-])c(C)s2)cc1OC` [compound 11326054]: the “resistance of 81.10 mutant (mutated in ethA gene)” value in experiment [2] is given as “resistant”. In experiment [5], this molecule gave a minimal inhibitory concentration (MIC) of more than 8 µg/mL.
With `CC1=CC=C(C(=O)Nc2ccc([N+](=O)[O-])cc2)S1(=O)=O` [compound 11426026], at PyrG V186G mutant, the “% of inhibition at 200 M PyrG V186G mutant” value is reported as 18.3 ± 1.5% and the “activity against PyrG V186G mutant” value is “not active”. In experiment [2], this molecule returned an MIC of 1 µg/mL (≈ 3.4 µM). This molecule gave an MIC in experiment [5] of 2.5 µg/mL (≈ 8.5 µM).
